In patent publication US9969732B2, “Tetrahydroisoquinoline estrogen receptor modulators and uses thereof” (Genentech, Inc., priority 2016, dated 2018):

Molecular target: T1, ER-alpha (WT) (Homo sapiens, UniProt P03372)
T1 construct: endogenous in cells; host or cells: MCF7 breast cancer cells
T1 sequence (P03372 1-595): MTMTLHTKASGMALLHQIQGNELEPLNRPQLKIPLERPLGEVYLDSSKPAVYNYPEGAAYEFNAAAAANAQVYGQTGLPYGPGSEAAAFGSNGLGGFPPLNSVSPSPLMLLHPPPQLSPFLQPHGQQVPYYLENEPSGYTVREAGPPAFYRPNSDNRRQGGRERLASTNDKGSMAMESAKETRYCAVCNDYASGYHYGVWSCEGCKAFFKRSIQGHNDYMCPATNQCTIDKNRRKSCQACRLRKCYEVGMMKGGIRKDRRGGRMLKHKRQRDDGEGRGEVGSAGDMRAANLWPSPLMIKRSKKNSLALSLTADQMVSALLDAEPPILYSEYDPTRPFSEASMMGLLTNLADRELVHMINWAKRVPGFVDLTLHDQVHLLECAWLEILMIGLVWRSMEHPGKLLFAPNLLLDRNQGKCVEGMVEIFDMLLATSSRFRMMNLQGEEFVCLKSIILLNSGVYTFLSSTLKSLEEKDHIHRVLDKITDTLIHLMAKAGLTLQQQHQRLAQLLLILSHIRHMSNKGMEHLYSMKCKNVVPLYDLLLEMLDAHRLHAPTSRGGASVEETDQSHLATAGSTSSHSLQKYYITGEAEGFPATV
Assay: Breast Cancer Cell ERa High Content Fluorescence Imaging Degradation Assay (MCF7 HCS)
Assay type: cell-based
Settings: MCF7 breast cancer cells, 4 hours incubation; for EC50: inflexion point of curve; for ERalpha (WT) MCF7 HCS (S inf): plateau of the maximal effect, DMSO and Fulvestrant define 0% and 100% changes in ESR1
Description: MCF7 breast cancer cells were seeded on day 1 at a density of 10,000 cells per well in 384 well poly-lysine coated tissue culture plate (Greiner #T-3101-4), in 50 μL/well RPMI (phenol red free), 10% FBS (Charcoal stripped), containing L-glutamine. […] Compounds and controls were dispensed using a Labcyte Echo acoustic dispenser to dispense compounds with a predefined serial dilution (1.8×, 10 point, in duplicate) and appropriate backfill and control compounds (final total volume transferred was 417.5 nL and compound dispense volume ranges from 2.5 nL to 417.5 nL; 0.84% DMSO (v/v) final), ultimately producing a concentration range from 0.05 nM to 835 nM. Cell plates were incubated at 37° C., for 4 hours. Fixation and permeabilization were carried out using a Biotek EL406 plate washer and dispenser as follows. Cells were fixed by addition of 15 μL of 16% paraformaldehyde (Electron Microscopy Sciences #15710-S) directly to the 50 μL cell culture medium in each well using the peristaltic pump 5 μL cassette on a Biotek EL406 (final concentration of formaldehyde was 3.7% w/v). Samples were incubated 30 minutes. Well contents was aspirated and 50 μL/well of Phosphate Buffered Saline (PBS) containing 0.5% w/v bovine serum albumen, 0.5% v/v Triton X-100 (Antibody Dilution Buffer) was added to each well. Samples were incubated for 30 minutes. Well contents were aspirated and washed 3 times with 100 μL/well of PBS. Immunofluorescence staining of estrogen receptor alpha (ESR1) was carried out using a Biotek EL406 plate washer and dispenser as follows. The well supernatant was aspirated from the wells and 25 μL/well of anti-ESR1 mAb (F10) (Santa Cruz sc-8002) diluted 1:1000 in Antibody Dilution Buffer was dispensed. Samples were incubated for 2 hours at room temperature. Samples were washed 4 times with 100 μL/well of PBS. 25 μL (microliters)/well of secondary antibody solution (Alexafluor® 488 conjugate anti-mouse IgG (LifeTechnologies #A21202) diluted 1:1000 and Hoechst 33342 1 μg/mL diluted in Antibody Dilution Buffer) were dispensed into each well. Samples were incubated for 2 hours at room temperature. Samples were washed 3 times with 100 μL/well of PBS using a Biotek EL406. Quantitative fluorescence imaging of ESR1 was carried out using a Cellomics Arrayscan V® (Thermo). Fluorescence images of the samples (Channel 1: XF53 Hoechst (DNA stain); Channel 2: XF53 FITC (ESR1 stain)) were acquired using a Cellomics VTI Arrayscan using the Bioapplication “Compartmental Analysis” using the auto-exposure (based on DMSO control wells) setting “peak target percentile” set to 25% target saturation for both channels. Channel 1 (DNA stain) was used to define the nuclear region (Circ). Measurements of “Mean_CircAvgIntCh2”, which is the Alexafluor 488 fluorescence intensity (ESR1) within the nuclear region, was measured on a per cell basis and averaged over all the measured cells. Data analysis was carried out using Genedata Screener Software, with DMSO and 5 nM Fulvestrant treated samples being used to define the 0% and 100% changes in ESR1. The “Robust Fit” method was used to define the inflexion point of curve (EC50) and the plateau of the maximal effect (Sinf).

| SMILES | EC50 [nM] | ERalpha (WT) MCF7 HCS (S inf) [%] |
| --- | --- | --- |
| CC(C)(F)C(=O)N1CCc2cc(O)ccc2[C@@H]1c1ccc(OCCN2CC(CF)C2)cc1 (single isomer, unassigned) [Example 103] | 100 |  |
| CC(C)(F)C(=O)N1CCc2cc(O)ccc2[C@H]1c1ccc(OCCN2CC(CF)C2)cc1 (single isomer, unassigned) [Example 104] | 0.741 | −90 |
| CC(C)(F)CN1CCc2cc(O)ccc2[C@]1(C)c1ccc(OCCN2CC(CF)C2)cc1 (single isomer, unassigned) [Example 107] | 3.22 | −97 |
| CS(=O)(=O)N1CCc2cc(O)ccc2[C@@H]1c1ccc(OCCN2CC(CF)C2)cc1 (single isomer, unassigned) [Example 109] | ≥ 100 |  |
| CS(=O)(=O)N1CCc2cc(O)ccc2[C@H]1c1ccc(OCCN2CC(CF)C2)cc1 (single isomer, unassigned) [Example 110] | 8.28 | −85 |
| C[C@H]1CN(S(C)(=O)=O)[C@@H](c2ccc(OCCN3CC(CF)C3)cc2)c2ccc(O)cc21 (single isomer, unassigned) [Example 118] | ≥ 100 |  |
| C[C@@H]1CN(S(C)(=O)=O)[C@@H](c2ccc(OCCN3CC(CF)C3)cc2)c2ccc(O)cc21 (single isomer, unassigned) [Example 119] | ≥ 100 |  |
| C[C@H]1Cc2c(ccc3[nH]ncc23)[C@H](c2c(F)cc(OCCN3CC(CF)C3)cc2F)N1CC(C)(C)F (single isomer, unassigned) [Example 124] | 3.23 | −90 |
| CC(C)(F)CN1CCc2cc(O)ccc2[C@@]1(c1ccc(OCCN2CC(CF)C2)cc1)C(F)F (single isomer, unassigned) [Example 127] | 22 | −85 |
| C[C@H]1Cc2cc(O)ccc2[C@H](c2ccc(OCCN3CC(CF)C3)cc2)N1CC(F)(F)F (single isomer, unassigned) [Example 131] | 1.4 | −96 |
| Oc1ccc2c(c1)CCCN(CC(F)(F)F)[C@H]2c1ccc(OCCN2CC(CF)C2)cc1 (single isomer, unassigned) [Example 139] | 0.101 | −95.4 |
| Oc1ccc2c(c1)CCN(CC(F)(F)F)C2c1c(F)cc(OC2CN(CCCF)C2)cc1F (single isomer, unassigned) [Example 143] | 22 | −100 |
| OCc1ccc2c(c1)CCN(CC(F)(F)F)C2c1ccc(OCCN2CC(CF)C2)cc1 (single isomer, unassigned) [Example 149] | 100 | −100 |
| Oc1ccc2c(c1)CCN(CC(F)(F)F)[C@H]2c1ccc(OCCN2CC(CF)C2)cc1 (single isomer, unassigned) [Example 153] | 0.54 | −99 |
| C[C@H]1Cc2ccccc2[C@H](c2ccc(OCCN3CC(CF)C3)cc2)N1CC(F)(F)F (single isomer, unassigned) [Example 155] | 31 | −70 |
| C[C@@H]1Cc2ccccc2[C@@H](c2ccc(OCCN3CC(CF)C3)cc2)N1CC(F)(F)F (single isomer, unassigned) [Example 156] | 0.85 | −97 |
| C[C@H]1Cc2cc(CO)ccc2[C@H](c2ccc(OCCN3CC(CF)C3)cc2)N1CC(F)(F)F (single isomer, unassigned) [Example 160] | 19 | −88 |
| C[C@H]1Cc2cc(C(=O)O)ccc2[C@H](c2ccc(OCCN3CC(CF)C3)cc2)N1CC(F)(F)F (single isomer, unassigned) [Example 163] | 11 | −92 |
| C[C@@H]1Cc2cc(C(=O)O)ccc2[C@@H](c2ccc(OCCN3CC(CF)C3)cc2)N1CC(F)(F)F (single isomer, unassigned) [Example 164] | 1.3 | −100 |
| C[C@@H]1Cc2cccc(O)c2[C@@H](c2ccc(OCCN3CC(CF)C3)cc2)N1CC(F)(F)CO (single isomer, unassigned) [Example 167] | 22 | −82 |
| C[C@H]1Cc2cccc(O)c2[C@H](c2ccc(OCCN3CC(CF)C3)cc2)N1CC(F)(F)CO (single isomer, unassigned) [Example 168] | 510 |  |
| C[C@H]1Cc2cc(CO)ccc2[C@H](c2ccc(NC3CN(CCCF)C3)cc2)N1CC(F)(F)F (single isomer, unassigned) [Example 169] | 37 | −60 |
| C[C@H]1Cc2cc(CO)ccc2[C@H](c2ccc(OCCN3CC(CF)C3)cc2)N1CC(F)(F)CO (single isomer, unassigned) [Example 171] | 23 | −63 |

Now those with a lower EC50, led by results:

| EC50 [nM] | ERalpha (WT) MCF7 HCS (S inf) [%] | SMILES |
| --- | --- | --- |
| 0.088 | −100 | C[C@@H]1Cc2cc(CO)ccc2[C@@H](c2ccc(NC3CN(CCCF)C3)cc2)N1CC(F)(F)F (single isomer, unassigned) [Example 170] |
| 0.075 | −95 | CC(C)(F)CN1CCc2cc(O)ccc2[C@]1(c1ccc(OCCN2CC(CF)C2)cc1)C(F)F (single isomer, unassigned) [Example 128] |
| 0.06 | −98.8 | C[C@@H]1Cc2c(ccc3[nH]ncc23)[C@@H](c2c(F)cc(OCCN3CC(CF)C3)cc2F)N1CC(C)(C)F (single isomer, unassigned) [Example 123] |
| 0.05 | −96.6 | Oc1ccc2c(c1)CCCN(CC(F)(F)F)[C@@H]2c1ccc(OCCN2CC(CF)C2)cc1 (single isomer, unassigned) [Example 140] |
| 0.043 | −99 | C[C@@H]1Cc2cc(CO)ccc2[C@@H](c2ccc(OCCN3CC(CF)C3)cc2)N1CC(F)(F)F (single isomer, unassigned) [Example 159] |
| 0.042 | −96 | CC1(C)Cc2cc(O)ccc2C(c2ccc(OCCN3CC(CF)C3)cc2)N1CC(F)(F)F (single isomer, unassigned) [Example 158] |
| 0.041 | −102 | Oc1ccc2c(c1)CCN(CC(F)(F)F)C2c1c(F)cc(OC2CN(CCCF)C2)cc1F (single isomer, unassigned) [Example 144] |
| 0.0344 | −98 | CC(C)(F)CN1CCc2cc(O)ccc2[C@@]1(C)c1ccc(OCCN2CC(CF)C2)cc1 (single isomer, unassigned) [Example 108] |
| 0.024 | −99 | Oc1ccc2c(c1)CCN(CC(F)(F)F)[C@@H]2c1ccc(OCCN2CC(CF)C2)cc1 (single isomer, unassigned) [Example 154] |
| 0.011 | −97 | C[C@@H]1Cc2cc(O)ccc2[C@@H](c2ccc(OCCN3CC(CF)C3)cc2)N1CC(F)(F)F (single isomer, unassigned) [Example 132] |
